In patent publication US6720346B2, “Thiazole benzamide derivatives and pharmaceutical compositions for inhibiting cell proliferation” (Agouron Pharmaceuticals, Inc., priority 2001, dated 2004):

Key:
HCT-116 cell line = experiment: Inhibition of cell growth, MTT tetrazolium salt assay; type: cell-based; conditions: for IC50: Homo sapiens, HCT-116, 120 h, MTT, three to five days
Summary of the method: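 Cells in McCoy's 5A medium were given 4 h before compound addition in 0.5% (v/v) DMSO, then incubated 3–5 days at 37 °C, 5% CO2. After 4 h with 0.2 mg/mL MTT, DMSO-solubilized formazan was read at 540 nm; 50% and 90% growth-inhibitory concentrations came from semi-log plots against vehicle controls.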

human CDK4/cyclin D3 = target: T1, human CDK4/cyclin D3 (Homo sapiens, UniProt P11802); experiment: Inhibition of CDK4/cyclin D retinoblastoma kinase activity (Ki; % inhibition); type: biochemical; conditions: for Ki: apparent Ki, CDK4/cyclin D3, Rb substrate
T1 construct: made in house; host or cells: insect cells co-infected with baculovirus vectors
Summary of the method: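 Insect-cell-expressed CDK4 with truncated cyclin D3 (1-264), 5 nM, phosphorylating His-tagged Rb fragment (386-928) with 25 μM [32/33P]ATP at pH 7.4, 30 °C, 20 min (60 min for tight binders). Filter capture, phosphorimager read; % inhibition at 30 nM compound, Ki from competitive or tight-binding fits.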

CDK2/cyclin A = target: T2, CDK2/cyclin A (Homo sapiens, UniProt P24941); experiment: Inhibition of CDK2/cyclin A retinoblastoma kinase activity (Ki; % inhibition); type: biochemical; conditions: for Ki: apparent Ki, CDK2/cyclin A, Rb substrate
T2 construct: made in house; host or cells: CDK2: insect cells (baculovirus); cyclin A: E. coli
Summary of the method: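 Radiometric filter assay of CDK2/proteolyzed cyclin A (baculovirus-expressed human CDK2, 10 or 19 nM) phosphorylating an Rb fragment with 25 μM [³²P/³³P]ATP in pH 7.4 HEPES, 2% DMSO, at 30 °C for 60 or 75 min under initial-rate conditions. Library compounds screened at 30 nM for % inhibition; apparent Ki from concentration series fit to competitive or tight-binding inhibition equations.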

[1] = HCT-116 cells, 0.25 μM compound

T1 sequence (P11802 whole entry): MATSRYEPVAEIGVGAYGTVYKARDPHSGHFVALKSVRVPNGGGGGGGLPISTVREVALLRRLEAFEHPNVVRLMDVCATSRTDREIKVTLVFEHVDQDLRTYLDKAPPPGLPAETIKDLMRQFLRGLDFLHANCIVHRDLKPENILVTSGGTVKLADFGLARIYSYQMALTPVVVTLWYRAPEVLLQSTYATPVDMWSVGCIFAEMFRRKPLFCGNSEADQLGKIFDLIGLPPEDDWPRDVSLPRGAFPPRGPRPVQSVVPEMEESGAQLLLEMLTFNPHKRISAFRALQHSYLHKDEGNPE
T1 sequence (P30281 1-264 partner limits assumed): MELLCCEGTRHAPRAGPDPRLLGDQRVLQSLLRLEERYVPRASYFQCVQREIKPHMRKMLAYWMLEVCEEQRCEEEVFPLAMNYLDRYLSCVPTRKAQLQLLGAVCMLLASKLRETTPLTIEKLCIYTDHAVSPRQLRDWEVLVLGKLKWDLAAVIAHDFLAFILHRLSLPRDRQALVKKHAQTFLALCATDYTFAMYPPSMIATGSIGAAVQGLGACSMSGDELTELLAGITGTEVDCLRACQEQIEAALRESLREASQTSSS

| Structure (SMILES) | CDK4 % Inhibition at 0.03 μM (human CDK4/cyclin D3; 0.03 μM compound) [%] | CDK2 % Inhibition at 0.03 μM (CDK2/cyclin A; 0.03 μM compound) [%] | CDK4 % Inhibition at 0.03 μM (human CDK4/cyclin D3; at 0.03 μM) [%] | CDK2 % Inhibition at 0.03 μM (CDK2/cyclin A; at 0.03 μM) [%] | HCT-116 % Inhibition at 0.1 μM (HCT-116 cell line; HCT-116 cells, 0.1 μM compound) [%] | HCT-116 % Inhibition at 0.25 μM (HCT-116 cell line; [1]) [%] | HCT-116 % Inhibition at 0.25 μM (HCT-116 cell line; HCT-116, at 0.25 μM) [%] | also measured |
| --- | --- | --- | --- | --- | --- | --- | --- | --- |
| CC(C)C(CO)NC(=O)c1ccc(Nc2nc(N)c(C(=O)c3c(F)cccc3F)s2)cc1 (stereo not shown) [Example G102] |  |  | 18 | −3 |  |  | 55 | HCT-116 % Inhibition at 0.1 μM (HCT-116 cell line; HCT-116, at 0.1 μM): 18% |
| CC(C)CCCC(C)NC(=O)c1ccc(Nc2nc(N)c(C(=O)c3c(F)cccc3F)s2)cc1 (stereo not shown) [Example G141] |  |  | 11 | 0 |  |  | 50 | HCT-116 % Inhibition at 0.1 μM (HCT-116 cell line; HCT-116, at 0.1 μM): 0% |
| CC(C)N(CCNC(=O)c1ccc(Nc2nc(N)c(C(=O)c3c(F)cccc3F)s2)cc1)C(C)C [Example A23, 4-[4-Amino-5-(2,6-difluoro-benzoyl)-thiazol-2-ylamino]-N-(2-diisopropylamino-ethyl)-benzamide] |  |  |  |  |  |  |  | IC50 (HCT-116 cell line): 100 nM; Ki (human CDK4/cyclin D3): 8 nM; Ki (CDK2/cyclin A): 130 nM |
| COc1ccccc1NC(=O)c1ccc(Nc2nc(N)c(C(=O)c3c(F)cccc3F)s2)cc1 [Example G23] |  |  | 7 | 8 |  |  | 63 |  |
| CN1CC(CNC(=O)c2ccc(Nc3nc(N)c(C(=O)c4c(F)cccc4F)s3)cc2)C1 [Example A75, 4-[4-Amino-5-(2,6-difluoro-benzoyl)-thiazol-2-ylamino]-N-(1-methyl-azetidin-3-ylmethyl)-benzamide] |  |  |  |  |  |  |  | IC50 (HCT-116 cell line): 1900 nM; Ki (human CDK4/cyclin D3): 51 nM; Ki (CDK2/cyclin A): 7.3 nM |
| CC1(C)CCCC(C)(C)N1CCNC(=O)c1ccc(Nc2nc(N)c(C(=O)c3c(F)cccc3F)s2)cc1 [Example A53, 4-[4-Amino-5-(2,6-difluoro-benzoyl)-thiazol-2-ylamino]-N-[2-(2,2,6,6-tetramethyl-piperidin-1-yl)-ethyl]-benzamide] |  |  |  |  |  |  |  | IC50 (HCT-116 cell line): 150 nM; Ki (human CDK4/cyclin D3): 4 nM; Ki (CDK2/cyclin A): 120 nM |

Now from value to compound, other results behind:

| CDK4 % Inhibition at 0.03 μM (human CDK4/cyclin D3; 0.03 μM compound) [%] | CDK2 % Inhibition at 0.03 μM (CDK2/cyclin A; 0.03 μM compound) [%] | CDK4 % Inhibition at 0.03 μM (human CDK4/cyclin D3; at 0.03 μM) [%] | CDK2 % Inhibition at 0.03 μM (CDK2/cyclin A; at 0.03 μM) [%] | Structure (SMILES) | HCT-116 % Inhibition at 0.1 μM (HCT-116 cell line; HCT-116 cells, 0.1 μM compound) [%] | HCT-116 % Inhibition at 0.25 μM (HCT-116 cell line; [1]) [%] | HCT-116 % Inhibition at 0.25 μM (HCT-116 cell line; HCT-116, at 0.25 μM) [%] | also measured |
| --- | --- | --- | --- | --- | --- | --- | --- | --- |
| 32 | 23 |  |  | Nc1nc(Nc2ccc(C(=O)NCc3cccc(C(F)(F)F)c3)cc2)sc1C(=O)c1c(F)cccc1F [Example G293] | 10 | 56 |  |  |
| 27 | 35 |  |  | Cc1ccccc1CNC(=O)c1ccc(Nc2nc(N)c(C(=O)c3c(F)cccc3F)s2)cc1 [Example G244] | 30 | 67 |  |  |
| 17 | 8 |  |  | CCCN(CCC)C(=O)c1ccc(Nc2nc(N)c(C(=O)c3c(F)cccc3F)s2)cc1 [Example G248] | 13 | 55 |  |  |
|  |  | 27 | 2 | Nc1nc(Nc2ccc(C(=O)NCCCn3ccnc3)cc2)sc1C(=O)c1c(F)cccc1F [Example G143] |  |  | 65 | HCT-116 % Inhibition at 0.1 μM (HCT-116 cell line; HCT-116, at 0.1 μM): 0% |
|  |  | 24 | 24 | CCC(CO)NC(=O)c1ccc(Nc2nc(N)c(C(=O)c3c(F)cccc3F)s2)cc1 (stereo not shown) [Example G156] |  |  |  | HCT-116 % Inhibition at 0.1 μM (HCT-116 cell line; HCT-116, at 0.1 μM, 0.1 µM): 0%; HCT-116 % Inhibition at 0.25 μM (HCT-116 cell line; HCT-116, at 0.25 μM, 0.25 µM): 61% |
| −2 | −12 |  |  | CCN(C)C(=O)c1ccc(Nc2nc(N)c(C(=O)c3c(F)cccc3F)s2)cc1 [Example G290] | 2 | 39 |  |  |
|  |  | 21 | 14 | Nc1nc(Nc2ccc(C(=O)NCC3CCCCC3)cc2)sc1C(=O)c1c(F)cccc1F [Example G173] |  |  | 54 | HCT-116 % Inhibition at 0.1 μM (HCT-116 cell line; HCT-116, at 0.1 μM): 18% |
| 30 | −9 |  |  | CCN(CC)CCN(C)C(=O)c1ccc(Nc2nc(N)c(C(=O)c3c(F)cccc3F)s2)cc1 [Example G298] | 0 | 46 |  |  |
